Structures can show the parent of a compound that is named as a salt.

The data set can be described thus: RP, Thermo Scientific Hypersil GOLD, 1.9 µm, 40 °C, 0.4 mL/min; A: water + 0.1% formic acid, pH 3; B: acetonitrile + 0.1% formic acid, pH 3; gradient (min/%B) 0/0 1/0 11/100 13/100 14/0 16/0. Particulars: stereoisomer not certain.
In the case of `COC1=C(OC)C(=O)C(CC=C(C)C)=C(C)C1=O` [coenzyme Q1], the LC retention time turned out to be 9.21 min.

As for `CSCCC(NC(C)=O)C(=O)O` (stereo not given) [N-ACETYLMETHIONINE], the LC retention time amounted to 4.61 min.

As for `O=C(O)C=Cc1ccc(O)cc1` [4-COUMARATE], the LC retention time stood at 5.43 min.

For `COC(=O)Cc1c[nH]c2ccccc12` [INDOLE-3-METHYL ACETATE], the LC retention time was determined as 7.44 min.

On to `Cc1cc2nc3c(=O)[nH]c(=O)nc-3n(CC(O)C(O)C(O)CO)c2cc1C` (stereo not given) [RIBOFLAVIN], for which the LC retention time stood at 5.05 min.

On to `Cn1cnc2c1c(=O)[nH]c(=O)n2C` [THEOBROMINE], for which the LC retention time came to 4.02 min.

Turning to `COC(=O)CCCCC(=O)O` [mono-Methyl adipate], the LC retention time was 5.42 min.

With `CC(=O)C1CCC2C3CC=C4CC(OS(=O)(=O)O)CCC4(C)C3CCC12C` (stereo not given) [pregnenolone sulfate], the LC retention time was 8.05 min.

As to `NC(=O)c1ccc[n+](C2OC(COP(=O)(O)OP(=O)(O)OCC3OC(n4cnc5c(=O)[nH]cnc54)C(O)C3O)C(O)C2O)c1` (stereo not given) [NICOTINAMIDE HYPOXANTHINE DINUCLEOTIDE], the LC retention time came to 0.82 min.

For `NC(=O)c1cccnc1` [NICOTINAMIDE], the LC retention time is 0.83 min.

For the compound `OCC(O)c1ccc(O)c(O)c1` (stereo not given) [3-4-DIHYDROXYPHENYLGLYCOL], the LC retention time worked out at 0.92 min.

In the case of `CC(=O)NC(C)C(=O)O` (stereo not given) [N-ACETYLALANINE], the LC retention time stood at 1.24 min.

For `CC(C)=CCNc1ncnc2nc[nH]c12` [N6-(DELTA2-ISOPENTENYL)-ADENINE], the LC retention time is 5.26 min.

`OCC(O)CO` [GLYCEROL]: the LC retention time is 0.68 min.

As to `Nc1ccccc1S(=O)(=O)O` [ANILINE-2-SULFONATE], the LC retention time was 1.42 min.

With `O=C(O)c1cc(O)ccc1O` [2-5-DIHYDROXYBENZOATE], the LC retention time was found to be 4.52 min.

In the case of `CC(=O)NC(CCC(=O)O)C(=O)O` (stereo not given) [N-ACETYLGLUTAMATE], the LC retention time turned out to be 0.93 min.

On to `C[N+](C)(C)CCOP(=O)(O)O` [PHOSPHORYLCHOLINE], for which the LC retention time is 0.64 min.

Consider `OCC1OC(OC2C(CO)OC(OC3C(CO)OC(O)C(O)C3O)C(O)C2O)C(O)C(O)C1O` (stereo not given) [Maltotriose], for which the LC retention time came out at 0.61 min.

For `CC(C)CC(=O)NCC(=O)O` [Isovaleroylglycine], the LC retention time was determined as 4.6 min.

As to `NC(CCCC(N)C(=O)O)C(=O)O` (stereo not given) [LL-2-6-DIAMINOHEPTANEDIOATE], the LC retention time turned out to be 0.6 min.

For `c1ccc(CNc2ccccc2)cc1` [N-benzylaniline], the LC retention time stood at 8.5 min.

In the case of `O=c1ccc2ccccc2o1` [Coumarin], the LC retention time turned out to be 6.42 min.

On to `NC(=O)c1ncn(C2OC(COP(=O)(O)O)C(O)C2O)c1N` (stereo not given) [AICAR], for which the LC retention time turned out to be 0.76 min.

On to `CC1OC(OCC2OC(Oc3c(-c4ccc(O)c(O)c4)oc4cc(O)cc(O)c4c3=O)C(O)C(O)C2O)C(O)C(O)C1O` (stereo not given) [rutin hydrate], for which the LC retention time amounted to 5.42 min.

Consider `CC(C=CC1=C(C)CCCC1(C)C)=CC=CC(C)=CC(=O)[O-]` [RETINOATE], for which the LC retention time amounted to 11.5 min.

On to `CN1C2CC(OC(=O)C(CO)c3ccccc3)CC1C1OC12` (single isomer, unassigned; (-)) [(-)-Scopolamine hydrochloride], for which the LC retention time amounted to 4.91 min.

Consider `CCCCC(CC)COC(=O)c1ccccc1C(=O)OCC(CC)CCCC` (stereo not given) [BIS(2-ETHYLHEXYL)PHTHALATE], for which the LC retention time was 13 min.

On to `CC(C)C(O)C(=O)O` (stereo not given), for which the LC retention time is 4.13 min.

Take `C=C(C)C1CC=C(CO)CC1` [(S)-(-)-Perillyl alcohol]: the LC retention time is 8.07 min.

On to `c1ncc2[nH]cnc2n1` [PURINE], for which the LC retention time came to 0.81 min.

For the compound `O=C1CCCCO1` [5-VALEROLACTONE], the LC retention time came out at 6.54 min.

Consider `NCCS(=O)O` [HYPOTAURINE], for which the LC retention time amounted to 0.63 min.

On to `C[n+]1cccc(C(N)=O)c1` [1-METHYLNICOTINAMIDE], for which the LC retention time was 0.63 min.

As for `CC(CCC(=O)O)C1CCC2C3C(O)C(O)C4CC(O)CCC4(C)C3CCC12C` (stereo not given) [5b-cholanic acid-3a-6a-7a-TRIOL], the LC retention time was found to be 7.96 min.

Regarding `CC(CCC(=O)O)C1CCC2C3CCC4CC(O)CCC4(C)C3CC(O)C12C` (stereo not given) [deoxycholic acid], the LC retention time amounted to 9.28 min.

With `CC12CCC(=O)C=C1CCC1C2C(=O)CC2(C)C1CCC2(O)C(=O)CO` (stereo not given) [CORTISONE], the LC retention time stood at 6.81 min.

As to `NC(Cc1ccc(O)c(O)c1)C(=O)O` [3-4-DIHYDROXY-L-PHENYLALANINE], the LC retention time is 0.82 min.

For the compound `O=C(O)c1cc(=O)c2ccccc2[nH]1` [Kynurenic acid], the LC retention time was determined as 4.67 min.

As for `NCCCNCCCN` [NORSPERMIDINE], the LC retention time stood at 0.49 min.

`Nc1c(O)cccc1C(=O)CC(N)C(=O)O` (stereo not given) [HYDROXYKYNURENINE]: the LC retention time came out at 0.88 min.

Turning to `O=C1OC(C(O)CO)C(O)=C1O` (stereo not given) [ASCORBATE], the LC retention time is 0.78 min.

Regarding `NCC(=O)CCC(=O)O` [5-AMINOLEVULINATE], the LC retention time was 0.64 min.

Consider `CNCCc1c[nH]c2ccccc12` [N-METHYLTRYPTAMINE], for which the LC retention time was 4.93 min.

With `CCC(C)C(N)C(=O)O` (stereo not given) [ISOLEUCINE], the LC retention time was 1.48 min.

With `O=C(O)CNC(=O)c1ccccc1O` [o-Hydroxyhippuric acid], the LC retention time was 5.5 min.

Consider `NCCc1ccc(O)c(O)c1` [DOPAMINE], for which the LC retention time stood at 0.83 min.

For the compound `C[N+](C)(C)CCCCC(N)C(=O)[O-]` (stereo not given) [N-N-N-TRIMETHYLLYSINE], the LC retention time was 0.59 min.

On to `O=C(O)c1cc(O)cc(O)c1` [3-5-Dihydroxybenzoic acid], for which the LC retention time amounted to 3.57 min.

Take `O=C(O)c1ccc(CO)o1` [5-hydroxymethyl-2-furancarboxylic acid]: the LC retention time turned out to be 3.49 min.

With `Nc1ccn(C2OC(CO)C3OP(=O)(O)OC32)c(=O)n1` (stereo not given) [CYTIDINE 2'-3'-CYCLIC PHOSPHATE], the LC retention time turned out to be 0.7 min.

Turning to `Cc1ncc(CO)c(CN)c1O` [PYRIDOXAMINE], the LC retention time amounted to 0.59 min.

For the compound `CC1NCCc2cc(O)c(O)cc21` (stereo not given) [SALSOLINOL], the LC retention time stood at 0.82 min.

Regarding `CC(CCC(=O)O)C1CCC2C3CCC4CC(=O)CCC4(C)C3CCC12C` (stereo not given) [5b-cholanic acid-3-ONE], the LC retention time came out at 10.7 min.

Take `O=c1c(OC2OC(CO)C(O)C(O)C2O)c(-c2ccc(O)c(O)c2)oc2cc(O)cc(O)c12` [Quercetin-3-beta-D-glucoside]: the LC retention time was determined as 5.53 min.

Turning to `O=C(C=Cc1ccc(O)c(O)c1)OC(Cc1ccc(O)c(O)c1)C(=O)O` (stereo not given) [ROSMARINATE], the LC retention time turned out to be 6.02 min.

On to `NC(CCOC(=O)CCC(=O)O)C(=O)O` (stereo not given) [O-SUCCINYL-HOMOSERINE], for which the LC retention time was determined as 0.82 min.

Consider `Nc1ccn(C2CC(O)C(COP(=O)(O)O)O2)c(=O)n1` (stereo not given) [DEOXYCYTIDINE MONOPHOSPHATE], for which the LC retention time stood at 0.74 min.

As for `NC(=O)C=CC(=O)O` [MALEAMATE], the LC retention time came out at 0.82 min.

For the compound `O=c1ccn(C2OC(COP(=O)(O)O)C(O)C2O)c(=O)[nH]1` (stereo not given) [URIDINE MONOPHOSPHATE], the LC retention time amounted to 0.76 min.

Source of the values: the RepoRT retention time repository.
